Values after ≈ are worked out from the molar mass of the structure shown. Values joined by “and” are separate entries in the source; they are usually repeats but may differ in a detail not shown here. Equal entries are not always repeated.
Key:
[1] = system: HBV-DNA in supernatant of 2.2.15 cell culture; experiment: HBV-DNA dot blot in supernatant of 2.2.15 cell culture; format: cell-based, hepatitis B virus; settings: day 8; for HBV-DNA in cell culture supernatant, CPM: control 3808.34
Description: Extraction of HBV-DNA from 2.2.15 cells supernatant: Grow 200000 cells/ml 2.2.15 cell on 24-well plate, 1 ml per well, add drugs after 24 hours incubation, change drug solution every 4 days with the same concentration, collect supernatant from cell culture after 8 days of incubation counted from the day drugs added into the culture, precipitate with polyethylene glycol, digest with proteinase K, extract with phenol:chloroform:isopentanol, nucleic acid precipitation by absolute ethanol and so on procedures, vacuum dry, re-dissolve in TE buffer as sample.
Dot blot: place dots: take 20 μl sample (contains 25 μg DNA), denature, neutralize, serial dilute 20×SSC buffer to 1:8 dilution on nitrocellulose membrane, oven dry, pre-hybridize, hybridize, wash membrane, radioactive self exposure and so on procedures. Develop X ray film with conventional method. Scan developed film with scanner, measure density with gel-pro software, calculate suppression rate and IC50.

[2] = system: 2.2.15 cells; experiment: Arginase toxicity to cells (CPE method, Reed-Muench); format: cell-based, human; settings: 8 days drug addition
Description: Divide experiment into control group and test groups with different drug concentration. Digest cells, dilute to 200,000 cells/ml, transfer to culture plate, 100 μl per well for 96-well plate, incubate for 24 hours under 5% CO2 at 37° C., ready for experiment when cells grown into monolayer. […] Observe cytopathological changes, 8 days or 4 days under microscope, totally destroyed is 4; 75% destroyed is 3; 50% destroyed is 2, 25% destroyed is 1; no changes is 0. Calculate TC50 and TC0 according to Reed-Muench Method:
A=log>50% drug concentration; B=log<50% drug concentration; C=log times of dilution
Starting from 40 IU/ml and subsequently 20, 10, 5, 2.5 IU/ml, change drug solution every 4 days until 8 days, observe cytopathological changes under microscope, and check for CPE with microscope.

[3] = system: HBsAg; experiment: Suppression of HBsAg secretion in 2.2.15 cells (radioimmunoassay, cpm); format: cell-based, hepatitis B virus
Description: (§1) Grow 200000 cells/ml 2.2.15 cell on 24-well plate, 1 ml per well, incubate for 24 hours under 5% CO2 at 37° C. […] 4 wells per concentration, incubate under 5% CO2 at 37° C., change drug solution every 4 days with the same concentration, retrieve culture medium at day 8, preserve at −20° C. Repeat experiment for 2 batches, test for HBsAg and HBeAg separately. Check cpm value for each wells using γ-counter.
(§2) Calculating drug effectiveness: calculate the mean and standard deviation of cpm from the cell control group and groups with different drug concentration, P/N value and percent suppression, IC50 and SI. • (1)
(§3) [formula] • (2) Calculate IC50 for drug suppression of antigen:
(§4) [formula] • (4) Calculate the cpm differences between HBsAg and HBeAg in different dilutions and control groups by t-test.

[4] = system: HBeAg; experiment: Suppression of HBeAg secretion in 2.2.15 cells (radioimmunoassay, cpm); format: cell-based, hepatitis B virus
Description: as §1, §2, §3, §4

[5] = Lamivudine 50 μg/ml, batch 1, day 8
[6] = Lamivudine 50 μg/ml, batch 2, day 8
[7] = Lamivudine 50 μg/ml, two batches average, day 8
[8] = Lamivudine 50 μg/ml, two batches average, day 8, listed as lamivudine
[9] = Lamivudine 100 μg/ml, batch 1, day 8
[10] = Lamivudine 100 μg/ml, batch 2, day 8
[11] = Lamivudine 100 μg/ml, two batches average, day 8
[12] = Lamivudine 100 μg/ml, two batches average, day 8, listed as lamivudine
[13] = Lamivudine 200 μg/ml, batch 1, day 8
[14] = Lamivudine 200 μg/ml, batch 2, day 8
[15] = Lamivudine 200 μg/ml, two batches average, day 8
[16] = Lamivudine 200 μg/ml, two batches average, day 8, listed as lamivudine
[17] = Lamivudine 400 μg/ml, batch 1, day 8
[18] = Lamivudine 400 μg/ml, batch 2, day 8
[19] = Lamivudine 400 μg/ml, two batches average, day 8
[20] = Lamivudine 400 μg/ml, two batches average, day 8, listed as lamivudine
[21] = Lamivudine 800 μg/ml, batch 1, day 8
[22] = Lamivudine 800 μg/ml, batch 2, day 8
[23] = Lamivudine 800 μg/ml, two batches average, day 8
[24] = Lamivudine 800 μg/ml, two batches average, day 8, listed as lamivudine

Nc1ccn([C@@H]2CS[C@H](CO)O2)c(=O)n1 [Lamivudine, lamivudine, reference compound]
IC50 ([1]; Hepatitis B virus, 192 h, first batch experiment): 114 µg/mL (≈ 0.496 mM)
% suppression of HBV-DNA in cell culture supernatant ([1]; Lamivudine 50 μg/ml): 25.6576%
HBV-DNA in cell culture supernatant, CPM ([1]; Lamivudine 50 μg/ml): 2831.21 CPM
% suppression of HBV-DNA in cell culture supernatant ([1]; Lamivudine 100 μg/ml): 61.5237%
HBV-DNA in cell culture supernatant, CPM ([1]; Lamivudine 100 μg/ml): 1465.31 CPM
% suppression of HBV-DNA in cell culture supernatant ([1]; Lamivudine 200 μg/ml): 71.6404%
HBV-DNA in cell culture supernatant, CPM ([1]; Lamivudine 200 μg/ml): 1080.03 CPM
% suppression of HBV-DNA in cell culture supernatant ([1]; Lamivudine 400 μg/ml): 79.1083%
HBV-DNA in cell culture supernatant, CPM ([1]; Lamivudine 400 μg/ml): 795.628 CPM
% suppression of HBV-DNA in cell culture supernatant ([1]; Lamivudine 800 μg/ml): 82.5905%
HBV-DNA in cell culture supernatant, CPM ([1]; Lamivudine 800 μg/ml): 663.013 CPM
TC0 [2]: 800 ± 0 µg/mL
TC50 [2]: 1198.97 µg/mL (≈ 5.23 mM)
TC0 ([2]; listed as lamivudine): 800 ± 0 µg/mL
TC50 ([2]; listed as lamivudine): 1198.97 ± 97.50 µg/mL and 1198.97 µg/mL
IC50 ([3]; Hepatitis B virus, 192 h, read-out: HBsAg IC50): > 800 µg/mL
HBsAg (CPM) % suppression [3, 5]: 6.24%
HBsAg (CPM) % suppression [3, 6]: 0.65%
HBsAg (CPM) % suppression [3, 7]: 3.45 ± 3.95%
HBsAg (CPM) % suppression [3, 8]: 3.45±3.95%
HBsAg (CPM) % suppression [3, 9]: 12.05%
HBsAg (CPM) % suppression [3, 10]: 5.15%
HBsAg (CPM) % suppression [3, 11]: 8.6 ± 4.88%
HBsAg (CPM) % suppression [3, 12]: 8.60±4.88%
HBsAg (CPM) % suppression [3, 13]: 2.35%
HBsAg (CPM) % suppression [3, 14]: 8.99%
HBsAg (CPM) % suppression [3, 15]: 5.67 ± 4.7%
HBsAg (CPM) % suppression [3, 16]: 5.67±4.70%
HBsAg (CPM) % suppression [3, 17]: 8.10%
HBsAg (CPM) % suppression [3, 18]: 0%
HBsAg (CPM) % suppression [3, 19]: 4.05 ± 5.73%
HBsAg (CPM) % suppression [3, 20]: 4.05±5.73%
HBsAg (CPM) % suppression [3, 21]: 0%
HBsAg (CPM) % suppression [3, 22]: 9.299%
HBsAg (CPM) % suppression [3, 23]: 4.65 ± 6.58%
HBsAg (CPM) % suppression [3, 24]: 4.65±6.58%
HBsAg IC50 ([3]; batch 1, day 8): >800 µg/mL
HBsAg IC50 ([3]; two batches average, day 8): >800 ± 0 TC0 μg/ml and >800 μg/ml
IC50 ([4]; Hepatitis B virus, 192 h, read-out: HBeAg IC50): > 800 µg/mL
HBeAg (CPM) % suppression [4, 5]: 13.20%
HBeAg (CPM) % suppression [4, 6]: 14.99%
HBeAg (CPM) % suppression [4, 7]: 14.10 ± 1.27%
HBeAg (CPM) % suppression [4, 8]: 14.10±1.27%
HBeAg (CPM) % suppression [4, 9]: 17.48%
HBeAg (CPM) % suppression [4, 10]: 14.19%
HBeAg (CPM) % suppression [4, 11]: 15.84 ± 2.33%
HBeAg (CPM) % suppression [4, 12]: 15.84±2.33%
HBeAg (CPM) % suppression [4, 13]: 16.35%
HBeAg (CPM) % suppression [4, 14]: 19.31%
HBeAg (CPM) % suppression [4, 15]: 17.83 ± 2.09%
HBeAg (CPM) % suppression [4, 16]: 17.83±2.09%
HBeAg (CPM) % suppression [4, 17]: 12.67%
HBeAg (CPM) % suppression [4, 18]: 13.32%
HBeAg (CPM) % suppression [4, 19]: 12.99 ± 0.46%
HBeAg (CPM) % suppression [4, 20]: 12.99±0.46%
HBeAg (CPM) % suppression [4, 21]: 6.10%
HBeAg (CPM) % suppression [4, 22]: 10.37%
HBeAg (CPM) % suppression [4, 23]: 8.23 ± 3.02%
HBeAg (CPM) % suppression [4, 24]: 8.23±3.02%
HBeAg IC50 ([4]; batch 1, day 8): >800 µg/mL
HBeAg IC50 ([4]; two batches average, day 8): >800 ± 0 TC0 800 μg/ml and >800 μg/ml

Source: US20080299638A1 (priority 2004, published 2008)
